Measurements from ChEMBL document CHEMBL1201862, “PubChem BioAssay data set” (2004).
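Cultured in 96-well plates, cells were exposed to test compound for 48 hours across five concentrations. The concentration for 50% growth inhibition is given as GI50.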 Activity calls are given as the source filed them. Cut-off read from the data, not from the text of the source: active = GI50 up to about 1.1 µM and inactive = higher.

Experiments:
Experiment in all cases: growth of human tumour cells (NCI), 48 h
PC-3 = test system: PC-3
IGROV-1 = test system: IGROV-1
A498 = test system: A498
HT-29 = test system: HT-29
NCI-H226 = test system: NCI-H226
CCRF-CEM = test system: CCRF-CEM
K562 = test system: K562
HOP-92 = test system: HOP-92
SW-620 = test system: SW-620
MCF7 = test system: MCF7
M14 = test system: M14
HOP-62 = test system: HOP-62
UO-31 = test system: UO-31
MDA-MB-231 = test system: MDA-MB-231
Malme-3M = test system: Malme-3M
SK-MEL-2 = test system: SK-MEL-2
MDA-N = test system: MDA-N
SR = test system: SR
SNB-78 = test system: SNB-78
SF-539 = test system: SF-539

SMILES | GI50 (PC-3) | GI50 (IGROV-1) | GI50 (A498) | GI50 (HT-29) | GI50 (NCI-H226) | GI50 (CCRF-CEM) | GI50 (K562) | GI50 (HOP-92) | GI50 (SW-620) | GI50 (MCF7) | GI50 (M14) | GI50 (HOP-62) | GI50 (UO-31) | GI50 (MDA-MB-231) | GI50 (Malme-3M) | GI50 (SK-MEL-2) | GI50 (MDA-N) | GI50 (SR) | GI50 (SNB-78) | GI50 (SF-539)
CNC(=O)OCc1nc(SSC(C)(C)C)n(C)c1COC(=O)NC | 8.75 µM (inactive) | 8.13 µM (inactive) | 9.38 µM (inactive) | 5.56 µM (inactive) | 13.3 µM (inactive) | 0.697 µM (active) | 1.94 µM (inactive) | 1.78 µM (inactive) | 1.61 µM (inactive) | 4.3 µM (inactive) | 1.71 µM (inactive) | 12.8 µM (inactive) | 9.02 µM (inactive) | 2.24 µM (inactive) | 1.86 µM (inactive) | 8.02 µM (inactive) | 2.45 µM (inactive) | 1.05 µM (active) | 7.83 µM (inactive) | 3.94 µM (inactive)
O=C(NC(c1ccccc1)C(O)C(=O)OCc1ccc2c(c1)C(=O)c1ccccc1C2=O)c1ccccc1 (stereo unspecified) | 17.2 µM (inactive) | 18.5 µM (inactive) | 5.71 µM (inactive) | 61.4 µM (inactive) | 4.61 µM (inactive) | 77.3 µM (inactive) | > 90.6 µM (inactive) | 3.15 µM (inactive) | 63.5 µM (inactive) | 17.7 µM (inactive) | 36.1 µM (inactive) | 3.62 µM (inactive) | 2.86 µM (inactive) | 15 µM (inactive) | 11.4 µM (inactive) | 18.1 µM (inactive) | 30.5 µM (inactive) | 57.9 µM (inactive) | 56.6 µM (inactive) | 6.31 µM (inactive)
NC1=C2C(Br)=CN([C@@H]3O[C@H](CO)[C@@H](O)[C@@H]3O)C2C(=O)N=N1 (stereo partly specified) |  | 3.99 µM (inactive) | 40.4 µM (inactive) | 2.42 µM (inactive) | 18.2 µM (inactive) | 0.526 µM (active) | 6.67 µM (inactive) | 2.51 µM (inactive) | 1.15 µM (inactive) |  | 1.27 µM (inactive) | 15.1 µM (inactive) | 4.85 µM (inactive) |  | 6.89 µM (inactive) | 14.8 µM (inactive) |  | 0.475 µM (active) | 30.9 µM (inactive) | 5.32 µM (inactive)
CO[C@H]1C[C@](C)(O)Cc2cc3c(c(O)c21)C(=O)c1c(O)cc2c(c1C3=O)O[C@@H]1O[C@@]2(C)[C@H](O)[C@@H](N(C)C)[C@@H]1O | 0.661 µM (active) | 2.32 µM (inactive) | 0.968 µM (active) | 1.94 µM (inactive) | 0.59 µM (active) | 0.151 µM (active) | 1.12 µM (inactive) | 0.362 µM (active) | 0.55 µM (active) | 0.103 µM (active) | 1.16 µM (inactive) | 0.181 µM (active) | 1.74 µM (inactive) | 1.82 µM (inactive) | 1.09 µM (active) | 2.43 µM (inactive) | 1.85 µM (inactive) | 0.0282 µM (active) | 3.87 µM (inactive) | 0.851 µM (active)
